Here are results for six molecules from patent publication US20100160226A1, “Y-RECEPTOR AGONISTS” (7TM PHARMA A/S, priority 2007, published 2010).

One data set is described as follows: in vivo. The arrangement: species or system cyno monkeys. To be noted: cynomolgus monkey. The source says: PYY itself is know to be extremely emetic when administered peripherally, in fact PYY was discovered-for “the second time” -in 1989 as the biologically active entity in a chromatographic fraction of an intestinal extract causing dogs to vomit (Harding and McDonald 1989 Peptides 10: 21-24). […] It has also been reported that PYY3-36 can cause nausea when administered peripherally to human subjects ([…] press release 29th of June 2004). From a physiological point of view it appears logically that PYY-and its biologically active conversion product-which normally first is secreted in large amounts during a very large meal or when food is dumped into the lower intestine due to various surgical procedures, is able to cause emesis and vomiting to relieve the subject from a situation of overt overeating. […] This is surprising since [[…]]PP has a relatively high potency on the Y2 receptor for which PYY3-36 is totally selective. […] Apparently, the Y4 receptor activation-conceivably in the area postreama-prevents the emetic effect of the Y2 activation form the same compound. This property of a combined Y2-Y4 selective agonist is of great benefit for the treatment of obesity and associated conditions.

In another data set the target is T1, human Y1 receptor (Homo sapiens, UniProt P25929).
T1 construct: expressed in transfected cells; host or cells: COS-7
T1 sequence (P25929 1-384): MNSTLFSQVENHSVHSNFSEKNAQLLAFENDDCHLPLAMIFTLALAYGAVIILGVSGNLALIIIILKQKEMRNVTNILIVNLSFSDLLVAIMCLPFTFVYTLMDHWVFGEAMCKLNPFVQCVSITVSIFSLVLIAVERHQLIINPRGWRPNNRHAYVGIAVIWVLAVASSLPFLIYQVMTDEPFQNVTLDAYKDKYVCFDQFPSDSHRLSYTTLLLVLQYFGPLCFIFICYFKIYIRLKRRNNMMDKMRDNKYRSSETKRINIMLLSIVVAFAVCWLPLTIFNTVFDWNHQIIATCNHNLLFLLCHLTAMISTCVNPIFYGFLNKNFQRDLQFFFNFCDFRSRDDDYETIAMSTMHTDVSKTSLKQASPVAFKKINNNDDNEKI
The experiment in a line: Human Y1 receptor potency assay (inositol phosphate turnover). The data set is classed as cell-based. To be noted: COS-7 cells transfected with human Y1 receptor and Gqi5, read-out: hY1 EC50. As to the method: Potency of the test compounds on the human Y2 receptor is determined by performing dose-response experiments in COS-7 cells transiently transfected with the human Y2 receptor as well as a promiscuous G protein, Gqi5 which ensures that the Y2 receptor couples through a Gq pathway leading to an increase in inositol phosphate turnover.
Cells are washed twice in buffer, 20 mM HEPES, pH 7.4, supplemented with 140 mM NaCl, 5 mM KCl, 1 mM MgSO4, 1 mM CaCl2, 10 mM glucose, 0.05% (w/v) bovine serum; and are incubated in 0.5 ml buffer supplemented with 10 mM LiCl at 37 C for 30 min. After stimulation with various concentrations of peptide for 45 min at 37 C, cells are extracted with 10% ice-cold perchloric acid followed by incubation on ice for 30 min. The resulting supernatants are neutralized with KOH in HEPES buffer, and the generated [3H]-inositol phosphate are purified on Bio-Rad AG 1-X8 anion-exchange resin and counted in a beta counter. Determinations are made in duplicates. EC50 values were calculated using a standard pharmacological data handling software, Prism 3.0 (graphPad Sofware, San Diego, USA).
Protocol as for the Y2 potency assay, except that human Y1-transformed COS-7 cells are used.

Consider `CC[C@H](C)[C@H](NC(=O)[C@H](Cc1ccc(O)cc1)NC(=O)[C@H](CCCNC(=N)N)NC(=O)[C@H](CCCNC(=N)N)NC(=O)[C@H](CC(C)C)NC(=O)[C@H](CC(=O)O)NC(=O)[C@H](C)NC(=O)[C@H](C)NC(=O)[C@H](Cc1ccc(O)cc1)NC(=O)[C@H](CCC(N)=O)NC(=O)[C@H](C)NC(=O)[C@H](CCSC)NC(=O)[C@H](CCC(N)=O)NC(=O)[C@H](CCC(=O)O)NC(=O)[C@@H]1CCCN1C(=O)[C@@H](NC(=O)[C@H](C)NC(=O)[C@H](CC(N)=O)NC(=O)[C@H](CC(=O)O)NC(=O)CNC(=O)[C@@H]1CCCN1C(=O)[C@H](Cc1ccc(O)cc1)NC(=O)[C@@H](NC(=O)[C@@H]1CCCN1C(=O)[C@H](CCC(=O)O)NC(=O)[C@H](CC(C)C)NC(=O)[C@@H]1CCCN1C(=O)[C@H](C)N)C(C)C)[C@@H](C)O)C(=O)N[C@@H](CC(N)=O)C(=O)N[C@@H](CCSC)C(=O)N[C@@H](CC(C)C)C(=O)N[C@H](C(=O)N[C@@H](CCCNC(=N)N)C(=O)N[C@@H](CCC(N)=O)C(=O)N[C@@H](CCCNC(=N)N)C(=O)N[C@@H](Cc1ccc(O)cc1)C(N)=O)[C@@H](C)O` [[Gln34]hPP], for which, in the data set “in vivo”, the level at time molar was in the range of 0.012 to 0.013 µM.

Regarding “H-APLEPVYPGDNATPEQMAQYAADLRRYINTITRQRY-NH2 [[Thr30, Ile31, Gln34]hPP]”, the EC50 (in general, the midpoint of the concentration-response curve) on human Y1 receptor is greater than 1 µM.

For “H-APLEPVYPGDNATPEQMAQYAADLRRYINTLTRQRY-NH2 [[Thr30, Gln34]hPP]”, the EC50 on human Y1 receptor was greater than 1 µM.

For the molecule “H-LEPVYPGDNATPEQMAQYAADLRRYINMLTRQRY-NH2 [[Gln34]hPP3-36, reference compound]”, the EC50 on human Y1 receptor was greater than 1 µM.

Regarding “H-PLEPVYPGDNATPEQMAQYAADLRRYINTITRQRY-NH2 [[Thr30, Ile31, Gln34]hPP2-36]”, the EC50 on human Y1 receptor is greater than 1 µM.

On to “H-PLEPVYPGDNATPEQMAQYAADLRRYINTLTRQRY-NH2 [[Thr30, Gln34]hPP2-36]”, for which the concentration for a half-maximal effect (EC50) at human Y1 receptor was greater than 1 µM.
